From the NIST ThermoML archive (doi:10.1021/je060291c)
Where “and” joins values, the source holds several entries; their conditions need not be identical. Equal values may be shown once.

Test: wn = mass fraction of the nth substance listed
Settings: Liquid, Pulse-echo method, w2 = 0.49

CC(F)(F)F [1,1,1-trifluoroethane] + FC(F)C(F)(F)F
speed of sound
Settings | 253.22 K | 258.15 K | 265.62 K | 273.14 K | 280.7 K | 288.18 K
940 kPa | – | – | – | 500.1 m/s | – | –
1010 kPa | – | – | – | 500.9 m/s | – | –
1130 kPa | – | – | – | 502.3 m/s | – | 427.1 m/s
1140 kPa | – | – | – | – | 465.9 m/s | –
1150 kPa | – | 574.9 m/s | – | – | – | –
1160 kPa | 598.8 m/s | – | – | – | 466.2 m/s | –
1170 kPa | – | 575.3 m/s | 539.5 m/s | – | – | –
1190 kPa | – | 575.7 m/s | – | – | – | 428.3 m/s
1210 kPa | – | – | 540.1 m/s | – | 466.5 m/s | –
1260 kPa | 599.7 m/s | 576.3 m/s | 540.5 m/s | 503.8 m/s | 467.5 m/s | 429.1 m/s
1380 kPa | 600.9 m/s | 577.6 m/s | 541.7 m/s | 505.3 m/s | 469.1 m/s | –
1500 kPa | 602 m/s | 578.8 m/s | 543 m/s | 506.6 m/s | 471 m/s | 432.9 m/s
1630 kPa | 603.1 m/s | 580 m/s | 544.3 m/s | 508.1 m/s | 472.4 m/s | 434.9 m/s
1750 kPa | 604.2 m/s | 581.2 m/s | 545.7 m/s | 509.5 m/s | 473.9 m/s | 436.7 m/s and 436.6 m/s
2010 kPa | 606.4 m/s | 583.4 m/s | 548.3 m/s | 512.5 m/s | 477.2 m/s | –
2250 kPa | 608.7 m/s | 585.8 m/s | 550.8 m/s | 515.3 m/s | 480.2 m/s | –
2510 kPa | 610.9 m/s | 588.1 m/s | 553.3 m/s | 518.1 m/s | 483.5 m/s | –
2750 kPa | 613.1 m/s | 590.3 m/s | 555.9 m/s | 520.9 m/s | 486.6 m/s | –
3010 kPa | 615.1 m/s | 592.6 m/s | 558.4 m/s | 523.7 m/s | 489.8 m/s | –
3500 kPa | 619.3 m/s | 597.1 m/s | 563.3 m/s | 529.2 m/s | 495.6 m/s | –
4000 kPa | 623.7 m/s | 601.5 m/s | 568.3 m/s | 534.4 m/s | 501.4 m/s | –
4500 kPa | 627.9 m/s | 606.1 m/s | 572.9 m/s | 539.5 m/s | 507.2 m/s | –
5000 kPa | 631.9 m/s | 610.4 m/s | 577.7 m/s | 544.6 m/s | 512.8 m/s | –
6010 kPa | 639.9 m/s | 618.6 m/s | 586.7 m/s | 554.2 m/s | 523.3 m/s | –
7010 kPa | 647.5 m/s | 626.7 m/s | 595.3 m/s | 563.6 m/s | 533.5 m/s | –
8000 kPa | 655.1 m/s | 634.7 m/s | 603.7 m/s | 572.9 m/s | 543.1 m/s | –
9000 kPa | 662.6 m/s | 642.2 m/s | 612.1 m/s | 581.6 m/s | 552.7 m/s | –
10000 kPa | 669.8 m/s | 649.7 m/s | 620.3 m/s | 590.2 m/s | 561.9 m/s | –
12000 kPa | 683.6 m/s | 664 m/s | 635.3 m/s | 606.5 m/s | 579.4 m/s | –
14000 kPa | 697 m/s | 677.9 m/s | 649.8 m/s | 622 m/s | 595.5 m/s | –
16010 kPa | 709.7 m/s | 691.3 m/s | 663.9 m/s | 636.6 m/s | 611 m/s | –
18000 kPa | 722.2 m/s | 704.1 m/s | 677.1 m/s | 650.5 m/s | 625.4 m/s | –
20000 kPa | 734.3 m/s | 716.5 m/s | 690.1 m/s | 663.8 m/s | 639.5 m/s | –
23000 kPa | 751.6 m/s | 734.2 m/s | 708.2 m/s | 683.2 m/s | 659.6 m/s | –
26000 kPa | 768.1 m/s | 751.1 m/s | 725.7 m/s | 701.6 m/s | 678.2 m/s | –
29010 kPa | 783.7 m/s | 767.3 m/s | 742.6 m/s | 718.9 m/s | 696.3 m/s | –
32000 kPa | 798.4 m/s | 782.5 m/s | 758.5 m/s | 735.3 m/s | 713.7 m/s | –
35000 kPa | 812.8 m/s | 797.1 m/s | 773.9 m/s | 751.1 m/s | 729.9 m/s | –
40000 kPa | 835.8 m/s | 820.8 m/s | 798.3 m/s | 775.8 m/s | 755.3 m/s | –
45000 kPa | 857.8 m/s | 843.3 m/s | 821.3 m/s | 799.7 m/s | 779.7 m/s | –
50000 kPa | 878.9 m/s | 864.3 m/s | 843.1 m/s | 822 m/s | 802.7 m/s | –
55000 kPa | 899 m/s | 884.5 m/s | 863.8 m/s | 843.4 m/s | 824.2 m/s | –
60000 kPa | 918.8 m/s | 904.1 m/s | 883.7 m/s | 863.4 m/s | 845.1 m/s | –
65000 kPa | 937.2 m/s | 923.1 m/s | 902.8 m/s | 882.8 m/s | 864.9 m/s | –
